This experiment relates to L1210 leukemia ip in BDF1 mice, survival T/C. Description: NCI In Vivo Anticancer Drug Screen. Data for tumor model L1210 Leukemia (intraperitoneal) in B6D2F1 (BDF1) mice. The conditions noted are these: endpoint: mean survival time, higher = longer survival. The procedure, abridged: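 Survival endpoint. Drug-treated group vs vehicle group, expressed as T divided by C. Tumor passaged by transplantation.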

Where [1] appears, read: dose: 100.0 mg/kg/injection, schedule: Q01DX009 (ip), vehicle: Klucel (hydroxypropylcellulose) (HPC).
Where [2] appears, read: dose: 200.0 mg/kg/injection, schedule: Q01DX009 (ip), vehicle: Klucel (hydroxypropylcellulose) (HPC).

Inconclusive results and toxic doses are left out.

In the case of `CN1C2CC(=O)CC1C1CC2C1`, the T/C was 98 % of control (dose: 12.5 mg/kg/injection, schedule: Q04DX002 (ip), vehicle: Klucel (hydroxypropylcellulose) (HPC)) and 94 % of control (dose: 25.0 mg/kg/injection, schedule: Q04DX002 (ip), vehicle: Klucel (hydroxypropylcellulose) (HPC)).

Turning to `CCOP(N)(=S)OCC`, the T/C was 102 % of control (dose: 75.0 mg/kg/injection, schedule: Q01DX001 (ip), vehicle: saline) and 102 % of control (dose: 150.0 mg/kg/injection, schedule: Q01DX001 (ip), vehicle: saline).

`OCC1OC(n2cnc3c(NCCCCNc4ncnc5c4ncn5C4OC(CO)C(O)C4O)ncnc32)C(O)C1O` (stereo unspecified): the T/C reads like this: (dose: 100.0 mg/kg/injection, schedule: Q01DX005 (ip), vehicle: saline) 100 % of control; (dose: 200.0 mg/kg/injection, schedule: Q01DX005 (ip), vehicle: saline) 108 % of control.

As for `NC1=NCCCN1`, the T/C (dose: 100.0 mg/kg/injection, schedule: Q04DX003 (ip), vehicle: saline with Tween-80) was 101 % of control.

`O=C(n1ccnc1)C(F)(F)C(F)(F)C(F)(F)F`: the T/C is 101 % of control (dose: 100.0 mg/kg/injection, schedule: Q01DX001 (ip), vehicle: saline sonified); 96 % of control (dose: 100.0 mg/kg/injection, schedule: Q04DX003 (ip), vehicle: saline); 110 % of control (dose: 200.0 mg/kg/injection, schedule: Q01DX001 (ip), vehicle: saline sonified); 96 % of control (dose: 200.0 mg/kg/injection, schedule: Q04DX003 (ip), vehicle: saline); 106 % of control (dose: 400.0 mg/kg/injection, schedule: Q01DX001 (ip), vehicle: saline sonified); 89 % of control (dose: 400.0 mg/kg/injection, schedule: Q04DX003 (ip), vehicle: saline).

For `O=c1[nH]c(CC(O)C(Cl)(Cl)Cl)nc2ccccc12` (stereo unspecified), the T/C is, setting by setting: (dose: 50.0 mg/kg/injection, schedule: Q01DX009 (ip), vehicle: Klucel (hydroxypropylcellulose) (HPC)) 100 % of control; under setting [1], 100 % of control; under setting [2], 103 % of control.

As for `Cc1ccc(C(=O)NN2C(N)=NC(N)=NC2(C)C)cc1`, the T/C is, setting by setting: (dose: 100.0 mg/kg/injection, schedule: Q01DX009 (ip), vehicle: saline sonified) 111 % of control; (dose: 200.0 mg/kg/injection, schedule: Q01DX009 (ip), vehicle: saline sonified) 92 % of control.

On to `NC(=Nc1ccccc1)c1ccc(C(N)=Nc2ccccc2)cc1`, for which the T/C is, setting by setting: (dose: 15.0 mg/kg/injection, schedule: Q01DX Z (ip), vehicle: carboxymethylcellulose (CMC)) 104 % of control; (dose: 30.0 mg/kg/injection, schedule: Q01DX Z (ip), vehicle: carboxymethylcellulose (CMC)) 98 % of control; (dose: 60.0 mg/kg/injection, schedule: Q01DX Z (ip), vehicle: carboxymethylcellulose (CMC)) 86 % of control.

With `CC1CN1P(=S)(N1CCCCC1)N1CC1C` (stereo unspecified), the T/C is 102 % of control (dose: 50.0 mg/kg/injection, schedule: Q01DX001 (ip), vehicle: carboxymethylcellulose (CMC)); 91 % of control (dose: 100.0 mg/kg/injection, schedule: Q01DX001 (ip), vehicle: carboxymethylcellulose (CMC)); 91 % of control (dose: 200.0 mg/kg/injection, schedule: Q01DX001 (ip), vehicle: carboxymethylcellulose (CMC)); 105 % of control (dose: 400.0 mg/kg/injection, schedule: Q01DX001 (ip), vehicle: carboxymethylcellulose (CMC)); 103 % of control (dose: 600.0 mg/kg/injection, schedule: Q01DX001 (ip), vehicle: carboxymethylcellulose (CMC)); 101 % of control (dose: 800.0 mg/kg/injection, schedule: Q01DX001 (ip), vehicle: carboxymethylcellulose (CMC)).

For the compound `Cc1cccc2cc[nH]c12`, the T/C reads like this: (dose: 50.0 mg/kg/injection, schedule: Q01DX001 (ip), vehicle: other) 115 % of control; (dose: 100.0 mg/kg/injection, schedule: Q01DX001 (ip), vehicle: other) 87 % of control; (dose: 200.0 mg/kg/injection, schedule: Q01DX001 (ip), vehicle: other) 102 % of control; (dose: 400.0 mg/kg/injection, schedule: Q01DX001 (ip), vehicle: other) 96 % of control.

For `CCC(C)(C)c1ccc(O)c(C(C)(C)CC)c1`, the T/C by setting is: under setting [1], 96 % of control; (dose: 100.0 mg/kg/injection, schedule: Q04DX003 (ip), vehicle: Klucel (hydroxypropylcellulose) (HPC)) 100 % of control; under setting [2], 96 % of control; (dose: 200.0 mg/kg/injection, schedule: Q04DX003 (ip), vehicle: Klucel (hydroxypropylcellulose) (HPC)) 89 % of control; (dose: 400.0 mg/kg/injection, schedule: Q01DX009 (ip), vehicle: Klucel (hydroxypropylcellulose) (HPC)) 96 % of control; (dose: 400.0 mg/kg/injection, schedule: Q04DX003 (ip), vehicle: Klucel (hydroxypropylcellulose) (HPC)) 87 % of control.

As for `Cc1cccc(Cl)c1OC(=O)Nc1ccccc1`, the T/C is 98 % of control (dose: 50.0 mg/kg/injection, schedule: Q04DX002 (ip), vehicle: Klucel (hydroxypropylcellulose) (HPC)); 98 % of control (dose: 100.0 mg/kg/injection, schedule: Q04DX002 (ip), vehicle: Klucel (hydroxypropylcellulose) (HPC)); 102 % of control (dose: 200.0 mg/kg/injection, schedule: Q04DX002 (ip), vehicle: Klucel (hydroxypropylcellulose) (HPC)).

As to `O=C(Nc1ccc(C2=NCCN2)cc1)c1ccc(F)c(C(=O)Nc2ccc(C3=NCCN3)cc2)c1`, the T/C (dose: 2.25 mg/kg/injection, schedule: Q01DX Z (ip), vehicle: water) was 105 % of control; the T/C (dose: 4.5 mg/kg/injection, schedule: Q01DX Z (ip), vehicle: water) is 107 % of control; the T/C (dose: 9.0 mg/kg/injection, schedule: Q01DX Z (ip), vehicle: water) was 116 % of control; the T/C (dose: 37.5 mg/kg/injection, schedule: Q01DX Z (ip), vehicle: water) was 154 % of control; the T/C (dose: 75.0 mg/kg/injection, schedule: Q01DX Z (ip), vehicle: water) was 189 % of control; the T/C (dose: 150.0 mg/kg/injection, schedule: Q01DX Z (ip), vehicle: water) is 241 % of control. For the same compound, the T/C (dose: 300.0 mg/kg/injection, schedule: Q01DX Z (ip), vehicle: water) is 229 % of control.

For the compound `NC(N)=N/N=C(\c1ccc(F)cc1)c1ccc(C(F)(F)F)cc1`, the T/C is 92 % of control (dose: 9.5 mg/kg/injection, schedule: Q01DX001 (ip), vehicle: other); 97 % of control (dose: 19.0 mg/kg/injection, schedule: Q01DX001 (ip), vehicle: other); 98 % of control (dose: 38.0 mg/kg/injection, schedule: Q01DX001 (ip), vehicle: other).

Take `Cc1nccc2c(C)c3c(cc12)c1ccccc1n3CC1CO1` (stereo unspecified): the T/C was 119 % of control (dose: 4.69 mg/kg/injection, schedule: Q01DX009 (ip), vehicle: saline with Tween-80); 113 % of control (dose: 9.37 mg/kg/injection, schedule: Q04DX003 (ip), vehicle: saline with Tween-80); 124 % of control (dose: 18.75 mg/kg/injection, schedule: Q01DX009 (ip), vehicle: saline with Tween-80); 119 % of control (dose: 18.75 mg/kg/injection, schedule: Q04DX003 (ip), vehicle: saline with Tween-80); 103 % of control (dose: 37.5 mg/kg/injection, schedule: Q01DX009 (ip), vehicle: saline with Tween-80); 122 % of control (dose: 37.5 mg/kg/injection, schedule: Q04DX003 (ip), vehicle: saline with Tween-80). Moreover, the T/C (dose: 75.0 mg/kg/injection, schedule: Q01DX009 (ip), vehicle: saline with Tween-80) was 92 % of control and the T/C (dose: 150.0 mg/kg/injection, schedule: Q04DX003 (ip), vehicle: saline with Tween-80) is 115 % of control.

In the case of `O=CN/N=C/c1cc(=O)[nH]c(=O)[nH]1`, the T/C runs as follows: (dose: 100.0 mg/kg/injection, schedule: Q01DX001 (ip), vehicle: saline) 87 % of control; (dose: 200.0 mg/kg/injection, schedule: Q01DX001 (ip), vehicle: saline) 87 % of control; (dose: 400.0 mg/kg/injection, schedule: Q01DX001 (ip), vehicle: saline) 93 % of control.

The record behind these values is PubChem BioAssay AID248 (DTP/NCI, 2004).
